This note sets out measurements from patent US20250325676A1, “CAMPTOTHECIN PRODRUG AND PHARMACEUTICAL COMPOSITION THEREOF” (TIANJIN HEMAY ONCOLOGY PHARMACEUTICAL CO., LTD, priority 2022, published 2025).

One data set deals with NCI-N87. The data set is described as follows: In vitro inhibition of human tumor cells, NCI-N87, MTT method. The class given is cell-based. For orientation: Tetrazolium assays rely on reduction of a dye to a coloured formazan, in cell work by metabolically active cells.
The test system of data set [1] is human colon cancer HCT116. The experiment in a line: Growth of human colon cancer HCT116 in allogeneic transplantation model. It counts as in vivo, nude mice. The conditions noted are these: 10 mg/kg i.v. qw × 2.
Protocol: (§6) When the tumor volume of the allogeneic transplantation was about 100 to 300 mm^3 and remained stable, the experimental animals were randomly divided into groups according to the size of the tumor volume (day 0) by using a remainder method. The tumor volume was measured 2 to 3 times a week. At the end of the dosage period, the experimental animals were sacrificed. The subcutaneous tumors were peeled and weighed. The anti-tumor activity of the drug against the model was evaluated based on tumor volume and tumor weight-related data.
(§7) The calculation formula of the tumor volume was: Volume=0.5×long diameter×short diameter×short diameter.
(§8) V0 was the resulting tumor volume measured at the time of dosing in groups (i.e., d0) and Vt was the tumor volume at each measurement.
(§9) TRTV was the average RTV of the subject, and CRTV was the average RTV of the model control group.
(§10) Wn: average body weight of each group of experimental animals on day n, and W0: average body weight of each group of experimental animals on day 0.
The test system of data set [2] is human gastric cancer NCI-N87. The experiment in a line: Growth of human gastric cancer NCI-N87 in allogeneic transplantation model. The class given is in vivo, nude mice. The conditions noted are these: for Relative volume RTV (X ± S.D.) / T/C (%) / Tumor inhibition rate (%) / Tumor weight (g, X ± S.D.): 20 mg/kg i.v. qw × 2. The protocol:
The tumor volume was measured 2 to 3 times per week. […] The subcutaneous tumors were peeled and weighed.
The calculation formula of the tumor volume: Volume=0.5×long diameter×short diameter×short diameter.

In data set [3] the test system is human colon cancer HCT116. The conditions noted are these: 30 mg/kg i.v. qw × 2; HCT116 large tumor after irinotecan. From the text:
When the tumor volume was more than 600 mm^3 and stable growth was maintained, the experimental animals were randomly divided by the remainder method and administered according to the size of the tumor volume. […] The subcutaneous tumors were stripped and weighed.
T was the subject and C is the model control.
Tumor volume growth was observed on a regular basis after completion of dosing.

In another data set the test system is MDA-MB-468. The data set is described as follows: In vitro inhibition of human tumor cells, MDA-MB-468, SRB method. (In general: The SRB assay estimates cell density from bound dye.)
The test system of a further data set is HCT116. The experiment in a line: In vitro inhibition of human tumor cells, HCT116, MTT method. It counts as cell-based. The protocol:
(§1) The cells were allowed to adhere overnight.
(§2) Adherent cells: Culture medium was aspirated and 100 μl/wells of basal culture (generally refers to medium without fetal bovine serum (FBS) and other additives) containing 0.5 mg/ml MTT were added. The cells were cultured for 3 hours. MTT-containing basal medium was aspirated and 100 μl/wells of DMSO were added to dissolve formazan.
(§3) Unstably adherent cells: Unstably adherent cells were directly added to the MTT solution to achieve the concentration of 0.5 mg/ml and cultured for 3 hours. The ternary solution in an equal volume to the system was added to the system to dissolve the formazan.
(§4) The DMSO concentration was 0.1%.

The next data set deals with SW620. The data set is described as follows: In vitro inhibition of human tumor cells, SW620, SRB method. It counts as cell-based.
From the text: as §1
(§5) Trichloroacetic acid was removed. […] Excess SRB was removed.
as §4

In another data set the test system is LoVo. The data set is described as follows: In vitro inhibition of human tumor cells, LoVo, SRB method. It counts as cell-based.
From the text: as §1, §5, §4

The next data set deals with BxPC-3. The experiment in a line: In vitro inhibition of human tumor cells, BxPC-3, MTT method. The class given is cell-based. The protocol:
as §1, §2, §3, §4

The subject of another data set is NCI-H460. The experiment in a line: In vitro inhibition of human tumor cells, NCI-H460, MTT method. The class given is cell-based. The protocol:
as §1, §2, §3, §4

A further data set concerns Fadu. The data set is described as follows: In vitro inhibition of human tumor cells, Fadu, MTT method. It counts as cell-based.
Data set [4] has as its system human small cell lung cancer NCI-H446. The conditions noted are these: 20 mg/kg i.v. qw × 2; NCI-H446 model.
Protocol: An allogeneic transplantation model of human small cell lung cancer NCI-H446 was established in nude mice subcutaneously using a tumor block inoculation method. When the tumor volume of the allogeneic transplantation was about 100 to 300 mm^3 and remained stable, the experimental animals were randomly divided into groups according to the size of the tumor volume (day 0, i.e., d0) using a remainder method. The tumor volume was measured 2 to 3 times a week. At the end of the dosage period, the experimental animals were sacrificed. The subcutaneous tumors were peeled and weighed. The anti-tumor activity of the drug against the model was evaluated based on tumor volume and tumor weight-related data.
as §7, §8
(§11) T was the subject and C was the model control.
as §9, §10
In another data set the test system is A375. The data set is described as follows: In vitro inhibition of human tumor cells, A375, SRB method.
Another data set has as its system 22RV1. The data set is described as follows: In vitro inhibition of human tumor cells, 22RV1, SRB method.
A further data set deals with BEL-7404. The data set is described as follows: In vitro inhibition of human tumor cells, BEL-7404, SRB method.
Another data set relates to human colon cancer LoVo. The conditions noted are these: 30 mg/kg i.v. qw × 2; LoVo model.
For a further data set, the system named is human colon cancer SW620. The conditions noted are these: 30 mg/kg i.v. qw × 2; SW620 model.
Data set [5] concerns human pancreatic cancer BxPC-3. The experiment in a line: Growth of human pancreatic cancer BxPC-3 in allogeneic transplantation model. The conditions noted are these: 25 mg/kg i.v. qw × 2, BxPC-3 model. It counts as in vivo, nude mice.
Protocol: as §6, §7, §8, §11, §9, §10
(§12) In the large tumor efficacy test after the second grouping of the G5 group, since the number of samples in each group of G6.1 and G6.4 was less than three, the relevant data of the large tumor efficacy test were statistically analyzed among groups using the T-Test method.
The subject of data set [6] is human pancreatic cancer BxPC-3. The conditions noted are these: 30 mg/kg i.v. qw × 2.
Protocol: as §6, §7, §8, §11, §9, §10, §12
[7] abbreviates: No βGU (direct effects of compound on cells).
Setting [8] is: BxPC-3 large tumors after irinotecan.

Read-outs that look alike come from different tables or passages of the source.

Protocol for 22RV1: (§13) 1.1.2 Cell culture method: Cells were cultured in complete medium, 37° C., 5% CO2, saturated humidity to log growth phase (adherent cells generally attended to complete fusion), and cells were collected for subsequent experiments (adherent cells were first digested with trypsin/ethylene diamine tetraacetic acid (EDTA) to remove adherent).
(§14) 1.1.3 96-well cell culture plates (hereinafter referred to as 96-well plates) were inoculated with a certain number of cells (see Table 1 for details). The cells were allowed to adhere overnight. […] Finally, the total amount of cell protein in the assay wells was determined by the SRB method, or the cell viability was determined by the MTT method:
(§15) The culture medium was aspirated from the wells and the cells were fixed for 1 hour or more by adding 10% trichloroacetic acid. Trichloroacetic acid was removed. The resultant was washed with H2O and stained with 0.4% SRB for 15 to 30 minutes. Excess SRB was removed. The resultant was washed with 1% acetic acid. The protein-bound SRB was dissolved by adding 10 mM of 100 μl Tris (trishydroxymethylaminomethane). Tests were carried out at the wavelength of 570 nm.
(§16) 1.1.4 dilution and addition of β-glucuronidase: 1 to 2 mg of β-glucuronidase was weighed and dissolved in PBS to give a 2 mg/ml of stock solution. […] 80 μl of enzyme working solution was added to the enzyme-containing assay wells. The amount of β-glucuronidase was 1 μg/wells. No enzyme-containing assay wells were added to the 80 μl of complete medium.
(§17) The assay wells were charged with 20 μl of 10× compound working solution. The final volume was 200 μl per well. The DMSO concentration was 0.1%.
(§18) 1.1.6 Compound inhibition activity calculation: The test included a compound test group, a compound-free positive solvent control group (PC) and a compound-free negative solvent control group (NC). […] The average inhibition rate and the standard deviation (SD) were obtained from the repeated test wells. The average inhibition rate was plotted on the basis of the compound concentration as an abscissa and distributed in the form of logarithms. The curve was fitted to the Logistic 4 parameter equation. […] The test was generally repeated to obtain 3 valid results.
Protocol for A375: as §13, §14, §15, §16, §17, §18
Protocol for BEL-7404: as §13, §14, §15, §16, §17, §18
Protocol for MDA-MB-468: as §13, §14, §15, §16, §17, §18
Protocol for human colon cancer LoVo: An allogeneic transplantation model of human colon cancer LoVo was established in nude mice subcutaneously using a tumor block inoculation method. When the tumor volume of the allogeneic transplantation was about 100 to 300 mm^3 and kept stable, the experimental animals were randomly divided into groups according to the tumor volume (day 0) by using a remainder method. The tumor volume was measured 2 to 3 times a week. At the end of the dosage period, the experimental animals were sacrificed. The subcutaneous tumors were peeled and weighed. The anti-tumor activity of the drug against the model was evaluated based on tumor volume and tumor weight-related data.
as §7
V0 was the resulting tumor volume measured at the time of dosing in groups (i.e., d0) and Vt is the tumor volume at each measurement.
as §11
TRTV was the average RTV of the subject and CRTV was the average RTV of the model control group.
as §10
Protocol for human colon cancer SW620: An allogeneic transplantation model of human colon cancer SW620 was established in nude mice subcutaneously using a tumor block inoculation method. When the tumor volume of the allogeneic transplantation was about 100 to 300 mm^3 and remained stable, the experimental animals were randomly divided into groups according to the size of the tumor volume (day 0) by using a remainder method. The tumor volume was measured 2 to 3 times a week. At the end of the dosage period, the experimental animals were sacrificed. The subcutaneous tumors were peeled and weighed. The anti-tumor activity of the drug against the model was evaluated based on tumor volume and tumor weight-related data.
as §7, §8
TRTV was the average value of RTV of the subject, and CRTV was the average RTV of the model control group.
as §10

Broadly, the IC50 is the concentration needed to halve the response being measured. A high value points to weaker potency in that assay. As to “(2S,3S,4S,5R,6S)-6-(3-((1-(2-((4′-((E)-(8-amino-1-hydroxy-5,7-disulfonicnaphthalen-2-yl)diazenyl)-3,3′-dimethyl-[1,1′-biphenyl]-4-yl)amino)-2-oxoethyl)-1H-1,2,3-triazol-4-yl)methoxy)-4-((((S)-4,11-diethyl-4-hydroxy-3,14-dioxy-3,4,12,14-tetrahydro-1H-pyrano[3′,4′:6,7]indolazino[1,2-b]quinolin-9-yl)oxy)methyl)phenoxy)-3,4,5-trihydroxytetrahydro-2H-pyran-2-carboxylate trisodium [Example 90]”, the IC50 came to 23 nM in the data set with NCI-N87 (Adding βGU), 839 nM in the data set with NCI-N87 (No βGU), 4.3 nM in the data set with MDA-MB-468 (Adding βGU) and 79 nM in the data set on MDA-MB-468 (No βGU). Further, the “T/C (%)” value came to 23.7% in data set [1], 25.3% in data set [2] and 23.9% in data set [3]. Also, the “Tumor inhibition rate (%)” value in data set [1] stood at 81.7%; in [2] it was 83.5%; in [3], 77.0%. In addition, the “Relative volume RTV (X ± S.D.)” value in data set [2] is listed as 1.30 ± 0.36; in [3], 0.89 ± 0.10. The “Tumor weight (g, X ± S.D.)” value in data set [2] is 0.197 ± 0.085 g; in data set [3], 0.627 ± 0.408 g.

For “(2S,3S,4S,5R,6S)-6-(3-((1-(2-(2-(2-((4′-((E)-(8-amino-1-hydroxy-5,7-disulfononaphthalen-2-yl)diazenyl)-3,3′-dimethoxy-[1,1′-biphenyl]-4-yl)amino)-2-oxoethoxy)ethoxy)ethyl)-1H-1,2,3-triazol-4-yl)methoxy)-4-(((S)-4,11-diethyl-4-hydroxy-3,14-dioxo-3,4,12,14-tetrahydro-1H-pyrano[3′,4′:6,7]indolazino[1,2-b]quinolin-9-yl)oxy)methyl)phenoxy)-3,4,5-trihydroxytetrahydro-2H-pyran-2-carboxylate trisodium [Example 61]”, the IC50 in the data set on HCT116 (Adding βGU (β-glucuronidase)) is 5.4 nM; in the data set on HCT116 (setting [7]) it was 220 nM; in the data set on SW620 (Adding βGU), 2.6 nM; in the data set on SW620 (No βGU), 283 nM; in the data set with LoVo (Adding βGU) it was 5.9 nM; with LoVo (No βGU), 244 nM. Moreover, the IC50 with NCI-N87 (Adding βGU) is 33 nM; in the data set with NCI-N87 (No βGU), 395 nM; in the data set with BxPC-3 (Adding βGU) it was 7.1 nM; with BxPC-3 (No βGU), 915 nM; in the data set on NCI-H460 (Adding βGU) it was 8.6 nM; in the data set on NCI-H460 (No βGU), 518 nM. Also, the IC50 turned out to be 15 nM in the data set with Fadu (Adding βGU); 498 nM with Fadu (No βGU); 12.5 nM in the data set on A375 (Adding βGU); 782 nM in the data set with A375 (No βGU); 8.4 nM in the data set with 22RV1 (Adding βGU); 225 nM in the data set on 22RV1 (No βGU). Besides, the IC50 in the data set on BEL-7404 (Adding βGU) came out at 40 nM; with BEL-7404 (No βGU), 565 nM; with MDA-MB-468 (Adding βGU) it was 6.5 nM; in the data set with MDA-MB-468 (No βGU), 212 nM. For the same substance, the “T/C (%)” value in data set [1] was found to be 27.2%; in data set [4] it was 3.7%. The “Tumor inhibition rate (%)” value is on record as 76.8% in data set [1] and 96.0% in data set [4]. The “Relative volume RTV (X ± S.D.)” value in data set [4] was found to be 0.25 ± 0.25. Also, the “Tumor weight (g, X ± S.D.)” value in [4] turned out to be 0.039 ± 0.049 g.

As for “4-amino-6-((E)-(4′-(6-(4-((2-(((S)-4,11-diethyl-4-hydroxy-3,14-dioxy-3,4,12,14-tetrahydro-1H-pyrano[3′,4′:6,7]indolazo[1,2-b]quinolin-9-yl)oxy)methyl)-5-(((2S,3R,4S,5 S,6S)-3,4,5-trihydroxy-6-(methoxycarbonyl)tetrahydro-2H-pyran-2-yl)oxy)phenoxy)methyl)-1H-1,2,3-triazol-1-yl)hexanamido)-3,3′-dimethyl-[1,1′-biphenyl]-4-yl)diazenyl)-5-hydroxynaphthalene-1,3-disulfonate disodium [Example 21]”, the IC50 in the data set on HCT116 (Adding βGU (β-glucuronidase)) came out at 35 nM; with HCT116 (setting [7]) it was 244 nM; in the data set on SW620 (Adding βGU), 23 nM; with SW620 (No βGU), 764 nM; in the data set with LoVo (Adding βGU), 45 nM; in the data set on LoVo (No βGU), 720 nM. Further, the IC50 with BxPC-3 (Adding βGU) amounted to 62 nM; in the data set on BxPC-3 (No βGU) it was 688 nM; in the data set on NCI-H460 (Adding βGU), 80 nM; in the data set with NCI-H460 (No βGU), 770 nM; with Fadu (Adding βGU), 9.8 nM; with Fadu (No βGU), 298 nM. In addition, the IC50 with A375 (Adding βGU) was 8.8 nM; in the data set on A375 (No βGU), 556 nM; in the data set with 22RV1 (Adding βGU), 14.5 nM; in the data set on 22RV1 (No βGU), 399 nM; in the data set on BEL-7404 (Adding βGU), 28 nM; in the data set on BEL-7404 (No βGU), 439 nM. Besides, the IC50 in the data set with MDA-MB-468 (Adding βGU) was 42 nM; in the data set on MDA-MB-468 (No βGU), 177 nM. The “T/C (%)” value is recorded as 9.8% in the data set with human colon cancer LoVo and 0.5% in the data set with human colon cancer SW620. Further, the “Tumor inhibition rate (%)” value in the data set with human colon cancer LoVo was determined as 93.1%; with human colon cancer SW620 it was 99.8%.

Take “(2S,3S,4S,5R,6S)-6-(3-((1-(5-((4′-((E)-(8-amino-1-hydroxy-5,7-disulfonicnaphthalen-2-yl)diazenyl)-3,3′-dimethyl-[1,1′-biphenyl]-4-yl)amino)-5-oxopentyl)-1H-1,2,3-triazol-4-yl)methoxy)-4-((((S)-4,11-diethyl-4-hydroxy-3,14-dioxy-3,4,12,14-tetrahydro-1H-pyrano[3′,4′:6,7]indolazino[1,2-b]quinolin-9-yl)oxy)methyl)phenoxy)-3,4,5-trihydroxytetrahydro-2H-pyran-2-carboxylate trisodium [Example 85]”: the concentration for half-maximal inhibition (IC50) with NCI-N87 (Adding βGU) came to 31 nM; in the data set on NCI-N87 (No βGU), 178 nM; in the data set with Fadu (Adding βGU), 15 nM; in the data set on Fadu (No βGU), 706 nM; in the data set on A375 (Adding βGU), 19 nM; in the data set on A375 (No βGU), 864 nM. In addition, the IC50 in the data set with 22RV1 (Adding βGU) came to 9 nM; in the data set on 22RV1 (No βGU), 248 nM; in the data set with BEL-7404 (Adding βGU) it was 50 nM; in the data set on BEL-7404 (No βGU), 721 nM; in the data set on MDA-MB-468 (Adding βGU), 9.7 nM; in the data set on MDA-MB-468 (No βGU), 71 nM. Also, the “Relative volume RTV (X ± S.D.)” value in data set [5] came out at 0.23 ± 0.05; in data set [2], 0.67 ± 0.24; in data set [6] (setting [8]) it was 0.48 ± 0.11. The “T/C (%)” value in data set [5] came to 4.8%; in [2] it was 13.0%; in data set [6] (setting [8]), 13.7%. Also, the “Tumor inhibition rate (%)” value in data set [5] stood at 97.2%; in [2] it was 93.6%; in data set [6] (setting [8]) it was 90.0%. The “Tumor weight (g, X ± S.D.)” value in data set [5] was determined as 0.047 ± 0.027 g; in [2] it was 0.076 ± 0.014 g; in data set [6] (setting [8]), 0.301 ± 0.051 g. For the same substance, the “Final body weight change (%)” value in data set [5] (nude mouse) is recorded as 4.0%; in data set [2] (20 mg/kg i.v. qw × 2, nude mouse) it was 10.0%; in data set [6] (BxPC-3 tumors more than 600 mm^3 after irinotecan 100 mg/kg i.p. qw × 2) it was 0.4%.
